Measured values from article PMC8560897, “Bioevaluation and Targeted Modification of Temporin-FL From the Skin Secretion of Dark-Spotted Frog (Pelophylax nigromaculatus)” (Frontiers in Molecular Biosciences, 2021).
No end group written: not given here.

Tests used:
S. aureus (NCTC 10788) = type: cell-based, Staphylococcus aureus; settings: NCTC 10788, 18 h
Procedure: (§1) Antimicrobial activity was evaluated by assessing minimal inhibitory concentrations (MICs) and minimal bactericidal concentrations (MBCs). The tested microorganisms comprised three Gram-positive bacterial strains, namely S. aureus (NCTC 10788) and MRSA strains (NCTC 12493 and ATCC 43300), E. coli (NCTC 10418), which is a Gram-negative bacterial strain, and C. albicans (NCYC 1467), a yeast species. Standard microbes were cultured in Muller-Hinton Broth (MHB) and suspended to obtain 5 × 10^5 CFU/ml. Subsequently, the equal volume microorganisms solutions were treated with a 2-fold dilution of peptides, the final concentration of the peptides ranged between 512 and 1 μM. The positive control of bacteria strains S. aureus, MRSA NCTC 12493 and E. coli is 0.2 mg/ml norfloxacin, 16 μM mellitin was used as C. albicans positive control and 0.2 mg/ml vancomycin as a positive control in ATCC 43300 MRSA strains. The solutions were incubated in 96-well plates used for measuring MICs followed for 18 h. The MBC values were assessed based on observations of the colony cultured on Muller-Hinton agar (MHA). The antimicrobial assay was performed in triplicate following the procedure applied in previous studies described ([Huang et al., 2017]).

MRSA ATCC 43300 [1] = type: cell-based, Methicillin-resistant Staphylococcus aureus; settings: ATCC 43300, 18 h
Procedure: as §1

MRSA NCTC 12493 = type: cell-based, Methicillin-resistant Staphylococcus aureus; settings: NCTC 12493, 18 h
Procedure: as §1

MRSA ATCC 43300 biofilm = type: cell-based, Methicillin-resistant Staphylococcus aureus; settings: ATCC 43300, 48 h
Procedure: (§2) We evaluated the antibiofilm activity of the three AMPs by applying a crystal violet staining assay following previous research with minor modifications ([Chen et al., 2018]), to determine the minimal biofilm inhibitory concentrations (MBICs) and the minimal biofilm eradication concentrations (MBECs). The tested MRSA bacterial strains (NCTC 12493 and ATCC 43300) were incubated and diluted with MHB to achieve a bacterial concentration of 5 × 10^5 CFU/ml. The peptides were undergone a 2-fold dilution and were incubated with diluted MRSA to determine MBIC values. For the MBEC assay, the diluted bacterial culture was incubated for 48 h to obtain a fully grown biofilm, which was treated with various concentrations of peptides dissolved in MHB and incubated for 24 h at 37°C. The positive control in MBIC and MBEC determination is 0.2 mg/ml vancomycin for MRSA ATCC 43300 strain and the aliquote of norfloxacin for MRSA NCTC 12493.

MRSA NCTC 12493 biofilm = type: cell-based, Methicillin-resistant Staphylococcus aureus; settings: NCTC 12493, 48 h
Procedure: as §2

[2] = tested on: defibrinated erythrocytes isolated from whole horse blood; type: cell-based; settings: red cells of horse
Description: Following a previous study ([Huang et al., 2017]), we evaluated the hemolytic activity of three peptides using defibrinated erythrocytes isolated from whole horse blood (TCS Biosciences Ltd., Buckingham, United Kingdom). Phosphate-buffered saline (PBS) and 1% Triton X-100 were used as negative and positive controls, respectively, and 1% DMSO/PBS was used as the vehicle control. The HC50 and the therapeutic index (TI = HC50/the geometric mean of MICs against tested bacterial strains of peptide) were calculated to determine the therapeutic potential.

in vitro = type: cell-based; settings: human
Procedure: Human keratinocyte cell line HaCaT (No.1101HUM-PUMC000373) was obtained from the National Infrastructure of Cell Line Resource (Beijing, China) and cultured in high-glucose Dulbecco’s modified Eagle medium (DMEM), containing 10% fetal bovine serum (FBS) and 1% penicillin and streptomycin (Thermo Fisher Scientific Co., Waltham, MA, United States). The grown cells were digested and quantificationally harvested in a 96-wells plate of cell density of 5 × 10^4×cells/ml. After 24 h incubation, the original medium in wells was replaced with fresh medium containing peptides with 2-fold serial dilution, the final concentrations of peptides ranging from […] to 1 μM. When the cells were treated with peptides for 24 h, the cell medium was changed into 100 μl of 10% CCK-8 solution and incubated for 4 h. The absorbance at 450 nm reflected the cell viability in each well. The growth control was cell culture without peptides and blank control was fresh DMEM without cells.

C. albicans (NCYC 1467) = type: cell-based; settings: NCYC 1467, 18 h
Procedure: as §1

E. coli (NCTC 10418) = type: cell-based; settings: for Antimicrobial activity MBC / Antimicrobial activity MIC: NCTC 10418, 18 h
Procedure: as §1

MRSA ATCC 43300 [3] = type: cell-based, Methicillin-resistant Staphylococcus aureus; settings: not told
Procedure: The bactericidal activity of cationic peptides resulted from membrane disruption. DNA or RNA that leaked out of the cell was stained with SYTOX™ Green Nucleic Acid Stain (Invitrogen Life Technologies, Carlsbad, CA, United States). The MRSA ATCC 43300 bacterial strain was used to evaluate the membrane disruptive potency of the three peptides. The assay was performed according to the procedure described previously with some modifications ([Chen et al., 2018]). Peptides at different concentrations (4 × MIC, 2 × MIC and 1 × MIC) were incubated with the re-suspended bacterial solution at a concentration of 5 × 10^6 CFU/well in the 96-well black plate for 3 h without light. The positive control is 70% isopropanol. SYTOX green dye (the final concentration of 1%) was then added to each well, and the permeabilizing potency was measured as fluorescent intensity using a SpeactraMax i3x plate reader (Molecular Devices, CA, United States). All experiments were done in five replicates for statistical significance.

[4] = tested on: MRSA (ATCC 43300) biofilm formation; experiment: Quantitative biofilm formation assay; type: cell-based, Methicillin-resistant Staphylococcus aureus
Procedure: Based on the previous study of quantitative biofilm formation assay ([Badmasti et al., 2015]; [Liu et al., 2020]), the crystal violet staining method with moderate modifications was applied for analyzing the capability of MRSA (ATCC 43300) forming biofilms when treated with different concentrations of peptides. Specifically, MRSA strain was cultured in MHB medium at 37°C overnight. Then the bacterial culture was subcultured in fresh MHB medium. The quantificational bacterial suspension (5 × 10^5 CFU/ml) was added into a 96-wells plate together with the tested peptides at different concentrations (2 × MBIC, 1 × MBIC, 1/2 × MBIC and 1/4 × MBIC). The MHB medium without bacteria was negative control and MRSA culture solution was the positive control. The cut-off optical density (ODc) was the mean ± deviation value of the absorbance of negative control at 595 nm. The biofilm formation ability of bacteria samples with different concentrations of peptides were divided into four groups: the negative biofilm formation (−) was the OD595nm ≤ ODc, the weak biofilm formation (+) was the ODc < OD595nm ≤ 2 × ODc, the moderate biofilm formation (++) represented the 2 × ODc < OD595nm ≤ 4 × ODc, and the strong biofilm formation (+++) indicated the OD595nm > 4 × ODc.

[5] = Circular-dichroism spectroscopy, helix content (BESTSEL); type: physicochemical; settings: CD
Procedure: The physiochemical structural analysis entailed website prediction and circular-dichroism (CD) spectroscopy as described previously ([Liu et al., 2017]; [Sang et al., 2018]; [Zhou et al., 2019]). Briefly, temporin-FL and two analogues were dissolved in 10 mM NH4Ac or 10 mM NH4Ac with 50% 2,2,2-trifluoroethanol (TFE) to determine their conformation in different solutions. The 10 mM NH4Ac solution provides a pH stable buffering environment to stabilize peptides and also to prevent system noise and not interfere with CD signals. The results of the CD spectroscopy were inputted into the BESTSEL CD spectrum online analysis tool (http://bestsel.elte.hu/index.php). HeliQuest (https://heliquest.ipmc.cnrs.fr/), and I-Tasser (http://zhanglab.ccmb.med.umich.edu/I-TASSER) were respectively used to determine the helical wheels plots and to predict the 3D secondary structure.

[6] = tested on: tested Gram-positive bacterial strains and fungi; type: cell-based; settings: 18 h
Procedure: as §1

[7] = tested on: MRSA (ATCC 43300) biofilm; experiment: Scanning electron microscopy of MRSA biofilms; type: cell-based, Methicillin-resistant Staphylococcus aureus; settings: 1 × MBEC, 24 h
Procedure: Silicon wafers were cut into small squares (5 mm × 5 mm) and placed at the bottom of a 24-well plate. Each well was then filled with 1 ml of sub-cultured MRSA (ATCC 43300) in MHB at a concentration of 5 × 10^5 CFU/ml and incubated at 37°C in a humid shaking incubator for 48 h to enable the formation of visible biofilms on the silicon wafers. Peptides at concentrations of 1 × MBEC and 4 × MBEC were incubated with PBS-washed MRSA biofilm for 24 h. After the incubation, the silicon wafer in each well was first washed in PBS and then fixed in 2.5% glutaraldehyde at 4°C for 4 h. The fixed biofilm was dehydrated using gradient ethanol solution (30, 50, 70, 80, 90, 95, and 100%) at 10-min intervals. The air-dried biofilm samples were coated with gold film using a LEICA-EM-ACE600 sputter coater instrument (Leica, Germany) and transferred to the field emission scanning electron microscopy (FESEM) system (ZEISS-SUPRA55, Germany) operating at 5 kV to observe the morphology of the peptide-treated biofilm.

FIPLVSGLFKLL-NH2 [Temporin-FLa, FIPLVSGLFKLL-NH2]
Antimicrobial activity MBC (S. aureus (NCTC 10788)): 8 µM | Antimicrobial activity MIC (S. aureus (NCTC 10788)): 4 µM | Antimicrobial activity MBC (MRSA ATCC 43300 [1]): 8 µM | Antimicrobial activity MIC (MRSA ATCC 43300 [1]): 4 µM | Antimicrobial activity MBC (MRSA NCTC 12493): 16 µM | Antimicrobial activity MIC (MRSA NCTC 12493): 4 µM | Antibiofilm activity MBEC (MRSA ATCC 43300 biofilm): 8 µM | Antibiofilm activity MBIC (MRSA ATCC 43300 biofilm): 4 µM | Antibiofilm activity MBEC (MRSA NCTC 12493 biofilm): 32 µM | Antibiofilm activity MBIC (MRSA NCTC 12493 biofilm): 8 µM | Hemolysis effect HC50 [2]: 74.02 µM | IC50 at 24 h (in vitro): 46.6 µM | Antimicrobial activity MBC (C. albicans (NCYC 1467)): 32 µM | Antimicrobial activity MIC (C. albicans (NCYC 1467)): 8 µM | Antimicrobial activity MBC (E. coli (NCTC 10418)): 128 µM | Antimicrobial activity MIC (E. coli (NCTC 10418)): 128 µM | Membrane permeability ranking among the three peptides (MRSA ATCC 43300 [3]): greatest permeability | Membrane permeabilization, SYTOX Green fluorescent intensity (MRSA ATCC 43300 [3]): highest fluorescent intensity

FIPVSGLFKLL-NH2 [Temporin-FLb, FIPVSGLFKLL-NH2]
Antimicrobial activity MBC (S. aureus (NCTC 10788)): 16 µM | Antimicrobial activity MIC (S. aureus (NCTC 10788)): 8 µM | Antimicrobial activity MBC (MRSA ATCC 43300 [1]): 128 µM | Antimicrobial activity MIC (MRSA ATCC 43300 [1]): 64 µM | Antimicrobial activity MBC (MRSA NCTC 12493): 32 µM | Antimicrobial activity MIC (MRSA NCTC 12493): 16 µM | Antibiofilm activity MBEC (MRSA ATCC 43300 biofilm): 128 µM | Antibiofilm activity MBIC (MRSA ATCC 43300 biofilm): 64 µM | Antibiofilm activity MBEC (MRSA NCTC 12493 biofilm): 128 µM | Antibiofilm activity MBIC (MRSA NCTC 12493 biofilm): 64 µM | Hemolysis effect HC50 [2]: 356.0 µM | IC50 at 24 h (in vitro): 375 µM | Antimicrobial activity MBC (C. albicans (NCYC 1467)): 128 µM | Antimicrobial activity MIC (C. albicans (NCYC 1467)): 32 µM | Antimicrobial activity MBC (E. coli (NCTC 10418)): 128 µM | Antimicrobial activity MIC (E. coli (NCTC 10418)): 128 µM | Membrane permeability ranking among the three peptides (MRSA ATCC 43300 [3]): lowest | Membrane permeabilization, SYTOX Green fluorescent intensity (MRSA ATCC 43300 [3]): relatively weak

H-FIPLVSGLFSKLL-NH2 [Temporin-FL, FIPLVSGLFSKLL-NH2]
Antimicrobial activity MBC (S. aureus (NCTC 10788)): 16 µM | Antimicrobial activity MIC (S. aureus (NCTC 10788)): 16 µM | Antimicrobial activity MBC (MRSA ATCC 43300 [1]): 32 µM | Antimicrobial activity MIC (MRSA ATCC 43300 [1]): 32 µM | Antimicrobial activity MBC (MRSA NCTC 12493): 64 µM | Antimicrobial activity MIC (MRSA NCTC 12493): 32 µM | Antibiofilm activity MBEC (MRSA ATCC 43300 biofilm): 64 µM | Antibiofilm activity MBIC (MRSA ATCC 43300 biofilm): 32 µM | Antibiofilm activity MBEC (MRSA NCTC 12493 biofilm): 64 µM | Antibiofilm activity MBIC (MRSA NCTC 12493 biofilm): 32 µM | Biofilm formation ([4]; MRSA ATCC 43300, peptide at 1/2× MBIC): ++ (the moderate biofilm formation (++) represented the 2 × ODc < OD595nm ≤ 4 × ODc) | Biofilm formation ([4]; MRSA ATCC 43300, peptide at 1/4× MBIC): ++ (the moderate biofilm formation (++) represented the 2 × ODc < OD595nm ≤ 4 × ODc) | Hemolysis effect HC50 [2]: 157.4 µM | IC50 at 24 h (in vitro): 83.4 µM | Helix in NH4Ac ([5]; 10 mM NH4Ac): 16.7% | Helix in 50%TFE/NH4Ac ([5]; 10 mM NH4Ac with 50% TFE): 92.3% | Antimicrobial activity MBC (C. albicans (NCYC 1467)): 64 µM | Antimicrobial activity MIC (C. albicans (NCYC 1467)): 32 µM | Activity against Gram-negative bacteria E. coli (in words) (E. coli (NCTC 10418); E. coli): inactive | Antimicrobial activity MBC (E. coli (NCTC 10418)): 128 µM | Antimicrobial activity MIC (E. coli (NCTC 10418)): 128 µM | MICs against tested Gram-positive bacterial strains and fungi [6]: 16 to 32 µM | Membrane permeability ranking among the three peptides (MRSA ATCC 43300 [3]): moderate permeabilizing activity | Membrane permeabilization, SYTOX Green fluorescent intensity (MRSA ATCC 43300 [3]): relatively weak | Biofilm disruption observed by SEM [7]: moderate bacterial colonies reduction
